Structures are written as SMILES.

The assay concerns human corneal endothelial cells. Nature of the assay: In vitro antioxidant activity, ROS-Glo H2O2 assay in corneal dystrophy-like environment. It is filed as cell-based. The following applies: compared to control group (corneal dystrophy-mimicking: UV 5 J/cm^2 + TGF-β1 10 ng/ml); sample 4 h before induction. How it is done: PriNeu I medium, which is a serum-free medium, was supplemented with 10% fetal bovine serum, human epidermal growth factor (EGF), human vascular endothelial growth factor (VEGF), human insulin, human transferrin, sodium selenite, hydrocortisone, heparin, R estradiol, L-glutamine, penicillin/streptomycin, and G418 (geneticin). Human corneal endothelial cells (purchased from Creative Biolabs (NY, USA)) were seeded onto culture dishes coated with FNC Coating Mix (Athena Environmental Science, MD, USA) and incubated at 37° C. in a humidified 5% CO2 atmosphere.
To establish an intracellular environment similar to that of cells affected by corneal dystrophy (hereinafter referred to as “corneal dystrophy-like environment”), cellular signaling pathways involving reactive oxygen species (ROS) and transforming growth factor-beta (TGF-β), both known to be associated with corneal dystrophy, were activated. Human corneal endothelial cells were first cultured in standard medium for 24 hours, after which the medium was replaced with serum-free PriNeu I medium. The cells were then irradiated at an intensity of 5 J/cm^2 using a UV irradiation (BLX-Link, Vilber, France). Subsequently, the cells were treated with recombinant human TGF-β1 protein at a concentration of 10 ng/ml (Bon Opus, NJ, USA).
To determine the effect of the above-prepared lipo-hydroxamic acid derivatives on oxidative stress activity in corneal endothelial cells, human corneal endothelial cells were cultured at 1.5×10^4 cells per well in a 96-well plate coated with FNC Coating Mix for 18 to 24 hours. Subsequently, the cells were treated with the test samples (Samples 1, 3, and 5). […] The oxidative stress activity was determined by measuring the level of hydrogen peroxide (hereinafter referred to as “H2O2”) in the cell culture medium using the ROS-Glo™ H2O2 Assay (Promega, WI, USA) according to the manufacturer's instructions. The luminescence intensity was measured using the GloMax® Discover microplate reader (Promega) at an excitation wavelength of 485 nm and an emission wavelength of 520-530 nm.

Take `CN(OCCO)C(=O)CCCC[C@@H]1CCSS1` [Sample 3, (R)-5-[1,2]dithiolan-3-yl-pentanoic acid (2-hydroxy-ethoxy)-methyl-amide]: the “oxidative stress (H2O2 level in cell culture medium)” value is recorded as “significantly decreased”.

On to `O=C(CCCCC1CCSS1)N(O)C(=O)CCCCC1CCSS1` (centres unmarked) [Sample 5, 5-[1,2]dithiolan-3-yl-pentanoic acid (5-[1,2]dithiolan-3-yl-pentanoyl-hydroxy-amide)], for which the “oxidative stress (H2O2 level in cell culture medium)” value is listed as “significantly decreased”.

For the origin of these results see patent US20260199287A1, “LIPO-HYDROXAMIC ACID DERIVATIVE AND PHARMACEUTICAL USE THEREOF” (MediciBIO Co., Ltd, priority 2022, published 2026).
